In ChEMBL document CHEMBL4715897, “A new 1-nitro-9-aminoacridine derivative targeting yeast topoisomerase II able to overcome fluconazole-resistance” (2021):
In brackets after ≈: the same amount, converted by molar mass. Activity calls are given as the source filed them. The rule behind the calls is not given here.

Key:
Candida albicans [1] = test: Antifungal activity against Candida albicans ATCC 10231 assessed as reduction in microbial growth; type: functional
Pichia kudriavzevii [2] = test: Fungicidal activity against Candida krusei DSM 6128; type: functional
Nakaseomyces glabratus [3] = test: Antifungal activity against Candida glabrata ATCC 90030 assessed as reduction in microbial growth; type: functional
Candida albicans [4] = test: Antifungal activity against fluconazole-sensitive Candida albicans Gu4 assessed as reduction in microbial growth; type: functional
Saccharomyces cerevisiae [5] = test: Antifungal activity against Saccharomyces cerevisiae ATCC 9763 assessed as reduction in microbial growth; type: functional
Saccharomyces cerevisiae [6] = test: Fungicidal activity against Saccharomyces cerevisiae ATCC 9763; type: functional
Candida albicans [7] = test: Antifungal activity against fluconazole-sensitive Candida albicans B3 assessed as reduction in microbial growth; type: functional
Candida albicans [8] = test: Antifungal activity against fluconazole-resistant Candida albicans F5 assessed as reduction in microbial growth; type: functional
Saccharomyces cerevisiae [9] = test: Inhibition of Saccharomyces cerevisiae DNA topoisomerase 2 assessed as decrease in relaxation of supercoiled DNA using supercoiled pBR322 plasmid DNA at 1 to 200 uM gel electrophoresis method; conditions: dose 1-200 µM
Candida albicans [10] = test: Antibiofilm activity against Candida albicans ATCC 10231 at concentration of 0.25 MIC by XTT assay; type: functional, organism-based
Candida albicans [11] = test: Antifungal activity against fluconazole-resistant Candida albicans Gu5 assessed as reduction in microbial growth; type: functional
Nakaseomyces glabratus [12] = test: Fungicidal activity against Candida glabrata DSM 11226; type: functional
Pichia kudriavzevii [13] = test: Antifungal activity against Candida krusei ATCC 6258 assessed as reduction in microbial growth; type: functional
Candida albicans [14] = test: Fungicidal activity against Candida albicans ATCC 10231; type: functional
Candida parapsilosis [15] = test: Antifungal activity against Candida parapsilosis ATCC 22019 assessed as reduction in microbial growth; type: functional; conditions: Lodderomyces parapsilosis
Candida albicans [16] = test: Antifungal activity against fluconazole-resistant Candida albicans B4 assessed as reduction in microbial growth; type: functional
Candida albicans [17] = test: Antifungal activity against fluconazole-sensitive Candida albicans F2 assessed as reduction in microbial growth; type: functional
[18] = Ratio of MFC for fungicidal activity against Saccharomyces cerevisiae ATCC 9763 to MIC for antifungal activity against Saccharomyces cerevisiae ATCC 9763; type: functional
Saccharomyces cerevisiae [19] = test: Inhibition of Saccharomyces cerevisiae DNA topoisomerase 2 assessed as decrease in relaxation of supercoiled DNA using supercoiled pBR322 plasmid DNA at 100 to 150 uM gel electrophoresis method; conditions: dose 100-150 µM
Candida albicans [20] = test: Growth inhibition of Candida albicans ATCC 10231 assessed as reduction in yeast to mycelium formation by measuring reduction in hyphal growth at concentration of 0.25 MIC after 3 hrs in YPG medium by light microscopic method relative to control; type: functional, organism-based
Candida albicans [21] = test: Growth inhibition of Candida albicans ATCC 10231 assessed as reduction in yeast to mycelium formation by measuring reduction in hyphal growth at concentration of 0.25 MIC after 3 hrs in G1cNAc medium by light microscopic method relative to control; type: functional, organism-based
Candida albicans [22] = test: Growth inhibition of Candida albicans ATCC 10231 assessed as reduction in yeast to mycelium formation by measuring reduction in hyphal growth at 0.25 MIC after 3 hrs by light microscopic method relative to control; type: functional
Candida = test: Antifungal activity against Candida; type: functional
Staphylococcus aureus = test: Antibacterial activity against Staphylococcus aureus ATCC 9144 assessed as reduction in microbial growth incubated for 48 hrs by photometric method; type: functional
Candida albicans [23] = test: Antifungal activity against Candida albicans CNCM 1180-79 assessed as reduction in microbial growth incubated for 72 hrs by photometric method; type: functional
Escherichia coli = test: Antibacterial activity against Escherichia coli ATCC 10536 assessed as reduction in microbial growth incubated for 48 hrs by photometric method; type: functional
Candida parapsilosis [24] = test: Fungicidal activity against Candida parapsilosis DSM 5784; type: functional; conditions: Lodderomyces parapsilosis

| SMILES | MIC90 (Candida albicans [1]) [µg/mL] | MFC (Pichia kudriavzevii [2]) [µg/mL] | MIC90 (Nakaseomyces glabratus [3]) [µg/mL] | MIC90 (Candida albicans [4]) [µg/mL] | MIC90 (Saccharomyces cerevisiae [5]) [µg/mL] | MFC (Saccharomyces cerevisiae [6]) [µg/mL] | MIC90 (Candida albicans [7]) [µg/mL] | MIC90 (Candida albicans [8]) [µg/mL] | Activity (Candida albicans [10]) | MIC90 (Candida albicans [11]) [µg/mL] | MFC (Nakaseomyces glabratus [12]) [µg/mL] | MIC90 (Pichia kudriavzevii [13]) [µg/mL] | MIC90 (Candida parapsilosis [15]) [µg/mL] | MIC90 (Candida albicans [16]) [µg/mL] | MIC90 (Candida albicans [17]) [µg/mL] | Ratio [18] | also measured |
| --- | --- | --- | --- | --- | --- | --- | --- | --- | --- | --- | --- | --- | --- | --- | --- | --- | --- |
| Cc1ccc([N+](=O)[O-])c2c(NCCOC(=O)[C@@H](N)CCCCN)c3ccccc3nc12 | 4 | 32 (≈ 75.2 µM) | 32 | 8 | 1 | 2 (≈ 4.7 µM) | 16 | > 64 | inactive | > 64 | 64 (≈ 150 µM) | 16 | 64 | > 64 | 8 | >=1 | inhibition (Saccharomyces cerevisiae [9]): inactive; MFC (Candida albicans [14]): 16 µg/mL (≈ 37.6 µM) |
| COc1cc(NS(C)(=O)=O)ccc1Nc1c2ccccc2nc2ccccc12 |  |  |  |  |  |  |  |  |  |  |  |  |  |  |  |  | inhibition (Saccharomyces cerevisiae [19]): Active |
| Cc1ccc(N)c2c(NCCO)c3ccccc3nc12 | > 64 |  | 64 |  | 64 |  |  |  |  |  |  | 64 | 64 |  |  |  |  |
| O=[N+]([O-])c1cccc2nc3ccccc3c(NCCNCCNCCNc3c4ccccc4nc4cccc([N+](=O)[O-])c34)c12 | 64 | 32 (≈ 54.2 µM) | 32 | > 64 | 8 | 16 (≈ 27.1 µM) | > 64 | > 64 | Active | > 64 | 32 (≈ 54.2 µM) | 32 | 32 | > 64 | > 64 | >=1 | growth inhibition (GI) (Candida albicans [20]): Active; growth inhibition (GI) (Candida albicans [21]): inactive; growth inhibition (GI) (Candida albicans [22]): 100%; inhibition (Saccharomyces cerevisiae [19]): Active |
| COc1cc([C@@H]2c3cc4c(cc3[C@@H](O[C@@H]3O[C@@H]5CO[C@@H](C)O[C@H]5[C@H](O)[C@H]3O)[C@H]3COC(=O)[C@H]23)OCO4)cc(OC)c1O [ETOPOSIDE] |  |  |  |  |  |  |  |  |  |  |  |  |  |  |  |  | MIC (Candida): 50 µg/mL (≈ 85 µM) |
| O=[N+]([O-])c1cccc2nc3ccccc3c(NCCO)c12 | 2 | 32 (≈ 113 µM) | 16 | 4 | 0.25 | 0.25 (≈ 0.882 µM) | 2 | > 64 | Active | 32 | 32 (≈ 113 µM) | 8 | 32 | > 64 | 4 | >=1 | MIC (Staphylococcus aureus): 50 µg/mL; growth inhibition (GI) (Candida albicans [20]): inactive; MIC (Candida albicans [23]): 50 µg/mL; inhibition (Saccharomyces cerevisiae [9]): inactive; MIC (Escherichia coli): 50 µg/mL; growth inhibition (GI) (Candida albicans [21]): inactive; MFC (Candida parapsilosis [24]): 64 µg/mL (≈ 226 µM); MFC (Candida albicans [14]): 4 µg/mL (≈ 14.1 µM); growth inhibition (GI) (Candida albicans [22]): inactive |
| Cc1ccc([N+](=O)[O-])c2c(NCCNCCNCCNc3c4ccccc4nc4c(C)ccc([N+](=O)[O-])c34)c3ccccc3nc12 | > 32 |  | > 32 |  | 32 |  |  |  |  |  |  | > 32 | > 32 |  |  |  |  |
| O=C(CCCCC(=O)OCCNc1c2ccccc2nc2cccc([N+](=O)[O-])c12)OCCNc1c2ccccc2nc2cccc([N+](=O)[O-])c12 | > 16 |  | > 16 |  | > 16 |  |  |  |  |  |  | > 16 | > 16 |  |  |  |  |
